Consider five compounds from US7041685B2, “Substituted 3-aryl-5-aryl-[1,2,4]-oxadiazoles and analogs as activators of caspases and inducers of apoptosis and the use thereof” (Cytovia, Inc., priority 2001, dated 2006).

Test [1] relates to T-47D. As to the kind of experiment: Caspase cascade activation assay (fluorogenic N-(Ac-DEVD)-N'-ethoxycarbonyl-R110 substrate) in T-47D cells. The test is classed as cell-based, Human. The settings on record: 48 h incubation; for Caspase Activity Ratio: ratio of net RFU of compound to control; for EC50: Homo sapiens, T47D, read-out: Caspase Potency EC50. As for the experimental part:
Human breast cancer cell lines T-47D and ZR-75-1 were grown according to media component mixtures designated by American Type Culture Collection +10% FCS (Invitrogen Corporation), in a 5% CO2—95% humidity incubator at 37° C. T-47D and ZR-75-1 cells were maintained at a cell density between 50 and 80% confluency at a cell density of 0.1 to 0.6×10^6 cells/mL. Cells were harvested at 600×g and resuspended at 0.65×10^6 cells/mL into appropriate media +10% FCS. An aliquot of […] of cells was added to a well of a […] microtiter plate containing 2.5 μl of a 10% DMSO in RPMI-1640 media solution containing 0.16 to 100 μM of 5-(3-chloro-thiophen-2-yl)-3-(4-trifluoromethyl-phenyl)-[1,2,4]-oxadiazole or other test compound (0.016 to 10 μM final). An aliquot of 22.5 μL of cells was added to a well of a […] microtiter plate containing 2.5 μl of a 10% DMSO in RPMI-1640 media solution without test compound as the control sample. The samples were mixed by agitation and then incubated at 37° C. for 48 h in a 5% CO2—95% humidity incubator. After incubation, the samples were removed from the incubator and 25 μL of a solution containing 14 μM of N-(Ac-DEVD)-N′-ethoxycarbonyl-R110 (SEQ ID No.:1) fluorogenic substrate (Maxim, Inc.; WO99/18856), 20% sucrose (Sigma), 20 mM DTT (Sigma), 200 mM NaCl (Sigma), 40 mM Na PIPES buffer pH 7.2 (Sigma), and 500 μg/mL lysolecithin (Calbiochem) was added. The samples were mixed by agitation and incubated at room temperature. Using a fluorescent plate reader (Model SpectraMax Gemini, Molecular Devices), an initial reading (T=0) was made approximately 1-2 min after addition of the substrate solution, employing excitation at 485 nm and emission at 530 nm, to determine the background fluorescence of the control sample. After the 3 h incubation, the samples were read for fluorescence as above (T=3 h).
The Relative Fluorescence Unit values (RFU) were used to calculate the sample readings as follows: RFU(T=3 h)−Control RFU(T=0)=Net RFU(T=3 h)
The activity of caspase cascade activation was determined by the ratio of the net RFU value for 5-(3-chloro-thiophen-2-yl)-3-(4-trifluoromethyl-phenyl)-[1,2,4]-oxadiazole or other test compound to that of control samples. The EC50 (nM) was determined by a sigmoidal dose-response calculation (Prism 2.0, GraphPad Software Inc.).

In another test the test system is MX-1 cells. As to the kind of experiment: Clonogenic survival of MX-1 solid tumor cells. The test is classed as cell-based. The conditions noted are these: Homo sapiens, MX1, 48 h treatment, colonies counted after 7-10 days, read-out: IC50 of colony forming ability (clonogenic survival). As for the experimental part: MX-1 cells were grown according to the conditions recommended by American Type Culture Collection. In a well of a 96 well plate, 30,000 cells were seeded and treated with compound at the indicated concentrations for 48 h in a 5% CO2—95% humidity incubator at 37° C. Control wells were treated with the same amount of solvent (DMSO) as the compound samples. After the indicated treatment time, the supernatant was removed to a sterile culture tube and the wells washed with phosphate buffered saline, and the adherent cells trypsinized for 5 min. The trypsinzed cells were added to the culture supernatant, cells were collected (1,200 rpm, 10 min), washed with phosphate buffered saline, and resupended in fresh media. The cells were counted for trypan blue negative cells, and the cells diluted with fresh media to 1,000 cells/mL. To a well of a 24-well plate, 0.1 mL of the cell suspension was added along with 1 mL of fresh media (cell suspensions were passed through a 22G needle several times just before plating to form single cell suspensions). Plates are incubated in a 5% CO2—95% humidity incubator at 37° C. for 7-10 days. Colonies are counted when the sizes reached greater than 50 cells per colony. […] Colonies are rinsed with water and the colonies counted and the fraction surviving expressed as the percentage of the number of control colonies.

Test [2] has as its system T-47D. As to the kind of experiment: Cell proliferation assay (GI50), T-47D. The test is classed as cell-based. The conditions noted are these: Homo sapiens, T47D, 48 h. As for the experimental part: (§1) T-47D and SKBr-3 cells were grown and harvested as in Example 121. An aliquot of 90 μL of cells (2. 2×10^4 cells/mL) was added to a well of a 96-well microtiter plate containing 10 μl of a 10% DMSO in RPMI-1640 media solution containing 1 nM to 100 μM of 5-(3-chloro-thiophen-2-yl)-3-(4-trifluoromethyl-phenyl)-[1,2,4]-oxadiazole (0.1 nM to 10 μM final). An aliquot of 90 μL of cells was added to a well of a 96-well microtiter plate containing 10 μL of a 10% DMSO in RPMI-1640 media solution without compound as the control sample for maximal cell proliferation (AMax). The samples were mixed by agitation and then incubated at 37° C. for 48 h in a 5% CO2—95% humidity incubator. After incubation, the samples were removed from the incubator and 20 μL of CellTiter 96 AQUEOUS One Solution Cell Proliferation™ reagent (Promega) was added. The samples were mixed by agitation and incubated at 37° C. for 2-4 h in a 5% CO2—95% humidity incubator. Using an absorbance plate reader (Model 1420 Wallac Instruments), an initial reading (T=0) was made approximately 1-2 min after addition of the solution, employing absorbance at 490 nm. This determines the possible background absorbance of the test compounds. No absorbance for 5-(3-chloro-thiophen-2-yl)-3-(4-trifluoromethyl-phenyl)-[1,2,4]-oxadiazole was found at 490 nm. After the 2-4 h incubation, the samples were read for absorbance as above (ATest). […]

Another test deals with ZR-75-1. As to the kind of experiment: Cell proliferation assay (GI50), ZR-75-1. The test is classed as cell-based. The settings on record: Homo sapiens, ZR75-1, 48 h. As for the experimental part:
[The source words this procedure for another cell line and reports this cell line under the same test.] as §1

The next test concerns MX-1. As to the kind of experiment: Cell proliferation assay (GI50), MX-1. The test is classed as cell-based. The conditions noted are these: Homo sapiens, MX1; MX-1, breast cancer cell line, 48 h. As for the experimental part: [The source words this procedure for another cell line and reports this cell line under the same test.] as §1
In another test the test system is SK-Br-3. As to the kind of experiment: Cell proliferation assay (GI50), SK-Br-3. The test is classed as cell-based. The settings on record: Homo sapiens; SK-Br-3, breast cancer cell line, 48 h. The procedure: as §1
The subject of the next test is PC-3. As to the kind of experiment: Cell proliferation assay (GI50), PC-3. The settings on record: Homo sapiens; PC-3, non-breast cancer cell line, 48 h. The test is classed as cell-based. The procedure: [The source words this procedure for another cell line and reports this cell line under the same test.] as §1
The next test relates to Panc-1. As to the kind of experiment: Cell proliferation assay (GI50), Panc-1. The settings on record: Homo sapiens; Panc-1, non-breast cancer cell line, 48 h. The test is classed as cell-based. As for the experimental part:
[The source words this procedure for another cell line and reports this cell line under the same test.] as §1

A further test concerns SW-620. As to the kind of experiment: Cell proliferation assay (GI50), SW-620. The test is classed as cell-based. The settings on record: Homo sapiens; SW-620, non-breast cancer cell line, 48 h.
The subject of a further test is NCI-H23. As to the kind of experiment: Cell proliferation assay (GI50), NCI-H23. The test is classed as cell-based. The conditions noted are these: Homo sapiens; NCI-H23, non-breast cancer cell line, 48 h. As for the experimental part: [The source words this procedure for another cell line and reports this cell line under the same test.] as §1
In a further test the test system is K562. As to the kind of experiment: Cell proliferation assay (GI50), K562. The test is classed as cell-based. The conditions noted are these: Homo sapiens; K562, non-breast cancer cell line, 48 h. The procedure:
[The source words this procedure for another cell line and reports this cell line under the same test.] as §1

A further test has as its system DLD-1. As to the kind of experiment: Cell proliferation assay (GI50), DLD-1. The test is classed as cell-based. The settings on record: Homo sapiens; DLD-1, colon cancer cell line, 48 h.

Regarding `O=[N+]([O-])c1ccc(-c2noc(-c3sccc3Cl)n2)cc1` [Example 6, 5-(3-Chloro-thiophen-2-yl)-3-(4-nitro-phenyl)-[1,2,4]-oxadiazole], in the test on T-47D [1], the “Caspase Activity Ratio” value is 3.8 and the EC50 was 5000 nM.
In the case of `FC(F)(F)c1ccc(-c2noc(-c3sccc3Cl)n2)cc1` [Example 4, 5-(3-Chloro-thiophen-2-yl)-3-(4-trifluoromethyl-phenyl)-[1,2,4]-oxadiazole], in the test on T-47D [1], the “Caspase Activity Ratio” value amounted to 4.2 and the EC50 turned out to be 5350 nM. For the same compound, the IC50 in the test with MX-1 cells was ~1050 nM.
In the case of `Fc1ccc(-c2noc(-c3sccc3Cl)n2)cc1` [Example 5, 5-(3-Chloro-thiophen-2-yl)-3-(4-fluoro-phenyl)-[1,2,4]-oxadiazole], the “Caspase Activity Ratio” value in the test on T-47D [1] turned out to be 19.7. Besides, the concentration for a half-maximal effect (EC50) in the test on T-47D [1] was determined as 2140 nM. Besides, the GI50 in the test with T-47D [2] is 300 nM; in the test on ZR-75-1, 400 nM; in the test on MX-1 it was 400 nM; with SK-Br-3, 20 nM; in the test on PC-3 it was > 10000 nM; in the test with Panc-1, > 10000 nM. Besides, the GI50 in the test on SW-620 was > 10000 nM; in the test on NCI-H23, > 10000 nM; in the test on K562, > 10000 nM; in the test on DLD-1, 40 nM.
Turning to `Clc1ccc(-c2noc(-c3sccc3Cl)n2)c(Cl)c1` [Example 7, 5-(3-Chloro-thiophen-2-yl)-3-(2,4-dichloro-phenyl)-[1,2,4]-oxadiazole], in the test on T-47D [1], the “Caspase Activity Ratio” value stood at 4.1 and the EC50 amounted to 865 nM.
On to `Clc1ccc(-c2noc(-c3sccc3Cl)n2)cc1` [Example 1, 3-(4-Chloro-phenyl)-5-(3-chloro-thiophen-2-yl)-[1,2,4]-oxadiazole], for which the “Caspase Activity Ratio” value with T-47D [1] was 16.9. Further, the concentration giving a half-maximal response (EC50) in the test on T-47D [1] was 3610 nM. The GI50 is 250 nM in the test on T-47D [2]; 200 nM with ZR-75-1; 300 nM in the test on MX-1; 20 nM with SK-Br-3; > 10000 nM with PC-3; > 10000 nM with Panc-1. For the same compound, the GI50 is > 10000 nM in the test with SW-620, > 10000 nM in the test on NCI-H23, > 10000 nM with K562 and 35 nM in the test on DLD-1.
